This is an account of results in ChEMBL document CHEMBL4229487, “Cyclic analogue of S-benzylisothiourea that suppresses kynurenine production without inhibiting indoleamine 2,3-dioxygenase activity” (Bioorg Med Chem Lett, 2018).

Data set [1] concerns the target Indoleamine 2,3-dioxygenase 1 (Homo sapiens) (UniProt P14902). Put plainly: Inhibition of recombinant human IDO at 10 uM using L-tryptophan as substrate after 60 mins relative to control.
The subject of data set [2] is A-431. Put plainly: Inhibition of kynurenine production in IFNgamma-treated human A431 cells at 1 uM after 24 hrs in presence of tryptophan relative to control. It is filed as functional. The following applies: A-431, 24 h.
Data set [3] concerns A-431. The data set can be described thus: Cytotoxicity against human A431 cells. It is filed as cell-based.
Data set [4] has as its system A-431. The data set can be described thus: Inhibition of kynurenine production in IFNgamma-treated human A431 cells at 10 uM after 24 hrs in presence of tryptophan relative to control. It is filed as functional. The following applies: A-431, 24 h.
Data set [5] deals with A-431. The data set can be described thus: Inhibition of kynurenine production in IFNgamma-treated human A431 cells after 24 hrs in presence of tryptophan. The following applies: A-431, 24 h. It is filed as functional, cell-based.
The test system of data set [6] is A-431. Put plainly: Cytotoxicity against human A431 cells at 100 uM. The class given is cell-based. The following applies: a-431, 100 µM.
The test system of data set [7] is A-431. The data set can be described thus: Inhibition of IFNgamma-induced STAT1 expression in human A431 cells after 24 hrs by Western blot method. It is filed as functional, cell-based. On the technique in general: Immunoblotting shows a protein as a band on a membrane.
Data set [8] deals with A-431. Put plainly: Inhibition of IFNgamma-induced IDO expression in human A431 cells after 24 hrs by Western blot method. It is filed as functional, cell-based.

A word on the inhibition: it is the relative decrease from the control value, in per cent. Usually IC50 stands for the concentration that inhibits the measured activity by half.

Indoleamine 2,3-dioxygenase 1 (Homo sapiens), sequence (P14902 whole entry, looked up): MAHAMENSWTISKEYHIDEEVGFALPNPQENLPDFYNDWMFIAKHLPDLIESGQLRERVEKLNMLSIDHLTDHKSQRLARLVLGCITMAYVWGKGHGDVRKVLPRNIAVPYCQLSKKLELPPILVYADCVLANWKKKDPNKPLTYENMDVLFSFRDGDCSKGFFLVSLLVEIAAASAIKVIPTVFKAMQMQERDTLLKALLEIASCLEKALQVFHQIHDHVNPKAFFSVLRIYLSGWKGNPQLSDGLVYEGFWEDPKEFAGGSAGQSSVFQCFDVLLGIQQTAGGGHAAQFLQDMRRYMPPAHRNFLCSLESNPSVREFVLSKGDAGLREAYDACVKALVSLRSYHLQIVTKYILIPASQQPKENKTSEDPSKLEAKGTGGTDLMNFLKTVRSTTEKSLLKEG

Consider `c1ccc(CCc2ccccc2CSC2=NCCN2)cc1`, for which the inhibition in data set [1] came to 17%. Further, in the data set with A-431 [2], the inhibition at 1 µM was 7%.

On to `[O-][S+](Cc1ccccc1)c1ccccc1CSc1nc2cc(Cl)ccc2[nH]1` (stereo not drawn), for which the inhibition in data set [1] came to 11%. Further, the inhibition at 1 µM in the data set on A-431 [2] came out at 30%.

Take `O=S(=O)(Cc1ccccc1)c1ccccc1CSc1nc2cc(Cl)ccc2[nH]1`: the inhibition in data set [1] came to 24%. In the data set with A-431 [2], the inhibition at 1 µM was 1%.

With `c1ccc(CCc2ccccc2CSc2ncc[nH]2)cc1`, the inhibition in data set [1] amounted to 19%. Also, the inhibition at 1 µM in the data set with A-431 [2] was determined as 1%.

Regarding `Clc1ccc2[nH]c(SCc3ccccc3CCc3ccccc3)nc2c1`, the Activity result in the data set on A-431 [3] is “Non-Toxic”. Also, the inhibition in data set [1] stood at 47%. In the data set with A-431 [2], the inhibition at 1 µM was determined as 48%.

As for `c1ccc(CCc2ccccc2CSC2=NCCS2)cc1`, the inhibition in data set [1] was found to be 0%. Besides, the inhibition at 1 µM in the data set with A-431 [2] is 0%.

`N=C(N)SCc1ccccc1`: the inhibition at 10 µM in the data set on A-431 [4] came out at 44%.

`Clc1ccc2oc(SCc3ccccc3CCc3ccccc3)nc2c1`: the inhibition in data set [1] came out at 21%. In addition, in the data set on A-431 [2], the inhibition at 1 µM is -18%.

`Clc1ccc2[nH]c(SCc3ccccc3C#Cc3ccccc3)nc2c1`: the inhibition in data set [1] was 52%. In addition, the inhibition at 1 µM in the data set on A-431 [2] came out at 6%.

Consider `Clc1ccc2sc(SCc3ccccc3CCc3ccccc3)nc2c1`, for which the inhibition in data set [1] amounted to 9%. The inhibition at 1 µM in the data set on A-431 [2] is -8%.

With `Clc1ccc2[nH]c(SCc3ccccc3OCc3ccccc3)nc2c1`, the inhibition in data set [1] worked out at 3%. Besides, the inhibition at 1 µM with A-431 [2] is 30%.

In the case of `c1ccc(CCc2ccccc2CSc2nccs2)cc1`, the inhibition in data set [1] stood at 31%. Also, in the data set with A-431 [2], the inhibition at 1 µM came to 7%.

Take `Clc1ccc2[nH]c(SCc3ccccc3SCc3ccccc3)nc2c1`: the half-inhibitory concentration (IC50) in the data set on A-431 [5] is 450 nM. Further, the Activity result with A-431 [6] was “Non-Toxic”. Also, the values for the inhibition result (in the data set with A-431 [7]; in data set [1]; in the data set on A-431 [8]) were “Dose-dependent effect”, 19% and “Dose-dependent effect”, respectively.

With `Clc1ccc2[nH]c(SCc3ccccc3Oc3ccccc3)nc2c1`, the inhibition in data set [1] turned out to be 30%. The inhibition at 1 µM in the data set with A-431 [2] was 39%.

For `c1ccc(CCc2ccccc2CSc2nc3ccccc3[nH]2)cc1`, the Activity result in the data set with A-431 [3] is on record as “Non-Toxic”. Also, in data set [1], the inhibition amounted to 43%. In addition, the inhibition at 1 µM in the data set on A-431 [2] was 43%.

As for `Clc1ccc2[nH]c(SCc3ccccc3CCCc3ccccc3)nc2c1`, in data set [1], the inhibition stood at 19%. Further, the inhibition at 1 µM with A-431 [2] was found to be 44%.

For the molecule `Clc1ccc2[nH]c(SCc3ccccc3/C=C/c3ccccc3)nc2c1`, the inhibition in data set [1] was -6%. In the data set with A-431 [2], the inhibition at 1 µM worked out at 15%.

Consider `Clc1ccc2[nH]c(SCc3ccccc3Cc3ccccc3)nc2c1`, for which, in data set [1], the inhibition turned out to be 46%. In addition, the inhibition at 1 µM in the data set on A-431 [2] came out at 13%.

Consider `Clc1ccc2[nH]c(SCc3ccccc3/C=C\c3ccccc3)nc2c1`, for which, in the data set with A-431 [5], the 50% inhibitory concentration (IC50) worked out at 340 nM. The Activity result in the data set with A-431 [6] was “Non-Toxic”. Besides, the inhibition in data set [1] stood at 49%.
